Test results from patent publication US12187709B2 (Genentech, Inc., priority 2021, dated 2025).

Experiments:
[1] = molecular target: Human Cbl-b (residues 40-426) (Homo sapiens (Human), UniProt Q13191); assay: Cbl-b SPR assay; assay type: binding; conditions: for Fold of selectivity: C-cbl SPR Kd vs Cbl-b SPR Kd; for Kd: SPR, 20° C.
Procedure: (§1) Affinity of binding to Cbl-b and c-Cbl for compounds described herein was assessed by surface plasmon resonance (SPR) according to the following protocol.
(§2) A surface capture range of 1300-1500 RU of protein was used for both isoforms.
(§3) For SPR measurements, 6 concentrations with 2 fold serial dilution were measured with blanks flanking each series for double referencing. […] SPR sensorgrams were recorded in multi-cycle kinetics format, with a contact time of 60 seconds and a flow rate of 40 μl/min, the dissociation time was varied between 120-1200 seconds aiming for 4-5 half-lives of the measured interaction.
(§4) Kinetic and affinity parameters were extracted from the multicycle kinetics data fitting to a 1:1 binding model using the Biacore™ Incyte evaluation software (Cytiva).
(§5) Chaser assay utilize a single cycle kinetics SPR experiment with a contact time of 120 seconds, a flow rate of 50 μl/min and a dissociation time of 450 seconds. Single cycle kinetics titration utilized an initial blank injection and 5 concentrations with 2 fold serial dilution with a maximum concentration of 500 nM, blanked to a preceding 6 point blank single cycle kinetics injection for double referencing.
(§6) The kd is measured independently by determining the percentage unoccupied compound binding site over time by measuring the binding of a chaser compound measured by SPR.
(§7) Chaser binding was measured by a multicycle kinetics SPR experiment using a contact time of 20 seconds, a flow rate of 30 μl/min, and a dissociation time of 120 seconds. […] The % compound bound at a given time was determined by comparison to a single injection of chaser preceding the single cycle kinetics titration defined below. % Compound Bound=(1−(RUT/RUT0))*100
(§8) The % compound bound is plotted against time in seconds and fit to a single exponential, where the exponent represents the kd of the compound-protein complex. The single cycle kinetics experiment of the compound is then fit with a fixed kd determined using the chaser.

c-Cbl (residues 47-435) = c-Cbl (residues 47-435) (Homo sapiens (Human), UniProt P22681); assay: c-Cbl SPR assay; assay type: binding; conditions: 20° C.
Sequence of c-Cbl (residues 47-435) (P22681 47-435): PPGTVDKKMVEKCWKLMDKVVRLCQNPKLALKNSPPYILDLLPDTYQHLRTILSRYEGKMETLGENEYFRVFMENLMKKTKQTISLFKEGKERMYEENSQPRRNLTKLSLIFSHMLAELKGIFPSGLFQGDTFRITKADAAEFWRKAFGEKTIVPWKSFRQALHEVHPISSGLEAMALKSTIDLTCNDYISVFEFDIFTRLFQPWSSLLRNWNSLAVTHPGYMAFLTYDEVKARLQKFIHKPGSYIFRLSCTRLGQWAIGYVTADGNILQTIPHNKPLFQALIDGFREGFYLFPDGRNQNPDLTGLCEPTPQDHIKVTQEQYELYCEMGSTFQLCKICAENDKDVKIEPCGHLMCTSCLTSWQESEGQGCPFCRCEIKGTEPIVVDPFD
Procedure: as §1, §2, §3, §4, §5, §6, §7, §8

c-Cbl = c-Cbl (Homo sapiens (Human), UniProt P22681); assay: C-Cbl LCK Ub TR-FRET assay (C-cbl Lck HTRF); assay type: biochemical
Sequence of c-Cbl (P22681 47-435): as above
In short: (§9)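 After the ubiquitination reaction, detection mixture was added and plates incubated 20 min at room temperature before reading. IC50 values were calculated with wells lacking LCK as the low control and DMSO as the high control.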

Cbl-b = Cbl-b (Homo sapiens (Human), UniProt Q13191); assay: Cbl-b LCK Ub TR-FRET assay (Cbl-b Lck HTRF); assay type: biochemical; conditions: for IC50: Cbl-b LCK Ub TR-FRET; for fold-selectivity (Cbl-b over C-cbl) / (fold-selectivity) Cbl-b and C-Cbl Selectivity: ratio C-cbl Lck HTRF IC50 / Cbl-b Lck HTRF IC50
Sequence of Cbl-b (Q13191 40-426): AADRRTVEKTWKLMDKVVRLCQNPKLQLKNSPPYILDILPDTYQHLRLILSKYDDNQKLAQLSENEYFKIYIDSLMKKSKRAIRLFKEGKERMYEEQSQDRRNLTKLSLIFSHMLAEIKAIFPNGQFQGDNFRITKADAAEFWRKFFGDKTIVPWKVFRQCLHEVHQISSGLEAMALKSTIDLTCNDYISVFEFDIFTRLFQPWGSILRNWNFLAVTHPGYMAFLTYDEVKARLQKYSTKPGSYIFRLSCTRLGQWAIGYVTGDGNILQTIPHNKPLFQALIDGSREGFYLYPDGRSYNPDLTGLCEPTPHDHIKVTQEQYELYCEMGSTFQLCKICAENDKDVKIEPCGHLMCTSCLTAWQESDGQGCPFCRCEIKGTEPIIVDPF
In short: as §9

Sequence of Human Cbl-b (residues 40-426) (Q13191 40-426): as above

Fold of selectivity [1]	Kd [1]	Kd (c-Cbl (residues 47-435))	IC50 (c-Cbl)	IC50 (Cbl-b)	fold-selectivity (Cbl-b over C-cbl) (Cbl-b)	IC50 (Cbl-b; Example 121)	(fold-selectivity) Cbl-b and C-Cbl Selectivity (Cbl-b)	Compound
9.5×	0.0021 µM	0.02 µM	–	–	–	–	–	Cn1cnnc1C1(c2cccc(N3Cc4c(cc(CNC5(C)CCC5)cc4C(F)(F)F)C3=O)c2)CC2(CCC2)C1
14×	0.0057 µM	0.078 µM	–	–	–	–	–	CC(C)[C@H]1CN(C)CCN1Cc1cc2c(c(C(F)(F)F)c1)CN(c1cccc(C3(c4nncn4C)CC4(COC4)C3)c1)C2=O
6.4×	0.0034 µM	0.024 µM	–	–	–	–	–	2-(3-(2-(4-methyl-4H-1,2,4-triazol-3-yl)-6-oxospiro[3.3]heptan-2-yl)phenyl)-6-(((1-methylcyclobutyl)amino)methyl)-4-(trifluoromethyl)isoindolin-1-one [Compound 92]
6.6×	0.0023 µM	0.016 µM	–	–	–	–	–	2-(3-(3,3-dimethyl-1-(4-methyl-4H-1,2,4-triazol-3-yl)cyclobutyl)phenyl)-6-(((1-methylcyclobutyl)amino)methyl)-4-(trifluoromethyl)-isoindolin-1-one [Compound 39]
7.5×	0.001 µM	0.0075 µM	–	–	–	–	–	2-(3-(6-hydroxy-2-(4-methyl-4H-1,2,4-triazol-3-yl)spiro[3.3]heptan-2-yl)phenyl)-6-(((1-methylcyclobutyl)amino)methyl)-4-(trifluoromethyl)isoindolin-1-one [Compound 93]
2.8×	0.059 µM	0.17 µM	–	–	–	–	–	2-(3-((1r,3r)-3-fluoro-1-(4-methyl-4H-1,2,4-triazol-3-yl)cyclobutyl)phenyl)-6-(((1-methylcyclobutyl)amino)methyl)-4-(trifluoromethyl)isoindolin-1-one [Compound 36]
14×	0.019 µM	0.29 µM	0.18 µM	0.076 µM	2.4x	–	–	Cn1cnnc1C(c1cccc(N2Cc3c(cc(CNC4(C)CCC4)cc3C(F)(F)F)C2=O)c1)C1CC(F)(F)C1 (racemic) [Compound 145, 2-(3-((3,3-difluorocyclobutyl)(4-methyl-4H-1,2,4-triazol-3-yl)methyl)phenyl)-6-(((1-methylcyclobutyl)amino)methyl)-4-(trifluoromethyl)isoindolin-1-one]
13×	0.0023 µM	0.029 µM	0.024 µM	0.016 µM	(1.5x)	–	–	Cn1cnnc1[C@@](O)(c1cccc(N2Cc3c(cc(CNC4(C)CCC4)cc3C(F)(F)F)C2=O)c1)C1CCC1 (single isomer, unassigned) [Compound 2]
5×	0.0025 µM	0.012 µM	0.018 µM	0.012 µM	(1.5x)	–	–	CO[C@H]1C[C@H]([C@@H](c2cccc(N3Cc4c(cc(CN5CCN(C)C[C@@H]5C(C)C)cc4C(F)(F)F)C3=O)c2)c2nncn2C)C1 (single isomer, unassigned) [Compound 12]
8.8×	0.63 µM	5.5 µM	1 µM	0.63 µM	(1.6x)	–	–	CO[C@H]1C[C@@H]([C@@H](c2cccc(N3Cc4c(cc(CN5CCN(C)C[C@@H]5C(C)C)cc4C(F)(F)F)C3=O)c2)c2nncn2C)C1 (single isomer, unassigned) [Compound 14]
–	–	–	12 µM	7.6 µM	1.5x	–	–	Cn1cnnc1[C@](O)(c1cccc(N2Cc3c(cc(CNC4(C)CCC4)cc3C(F)(F)F)C2=O)c1)C(F)(F)F [Compound 307, (R)-6-(((1-methylcyclobutyl)amino)methyl)-2-(3-(2,2,2-trifluoro-1-hydroxy-1-(4-methyl-4H-1,2,4-triazol-3-yl)ethyl)phenyl)-4-(trifluoromethyl)isoindolin-1-one]
–	–	–	20 µM	5.3 µM	3.8x	–	–	CC(C)[C@@](O)(c1cccc(N2Cc3c(cc(CNC4(C)CCC4)cc3C(F)(F)F)C2=O)c1)c1nncn1C [Compound 309, (R)-2-(3-(1-hydroxy-2-methyl-1-(4-methyl-4H-1,2,4-triazol-3-yl)propyl)phenyl)-6-(((1-methylcyclobutyl)amino)methyl)-4-(trifluoromethyl)isoindolin-1-one]
–	–	–	20 µM	6.8 µM	2.0x	–	–	CC[C@H](NC1(C)CCC1)c1cc2c(c(C(F)(F)F)c1)CN(c1cccc([C@@H](c3nncn3C)C3COC3)c1)C2=O [Compound 315, 2-(3-((S)-(4-methyl-4H-1,2,4-triazol-3-yl)(oxetan-3-yl)methyl)phenyl)-6-((S)-1-((1-methylcyclobutyl)amino)propyl)-4-(trifluoromethyl)isoindolin-1-one]
–	–	–	20 µM	11 µM	1.9x	–	–	Cn1cnnc1[C@]1(c2cccc(N3Cc4c(cc(CNC5(C)CCC5)cc4C(F)(F)F)C3=O)c2)C[C@@H](S(C)(=O)=O)C1 [Compound 325, 2-(3-((1r,3r)-1-(4-methyl-4H-1,2,4-triazol-3-yl)-3-(methylsulfonyl)cyclobutyl)phenyl)-6-(((1-methylcyclobutyl)amino)methyl)-4-(trifluoromethyl)isoindolin-1-one]
–	–	–	20 µM	16 µM	1.2x	–	–	Cn1cnnc1[C@]1(c2cccc(N3Cc4c(cc(CNC5(C)CCC5)cc4C(F)(F)F)C3=O)c2)C[C@H](S(C)(=O)=O)C1 [Compound 326, 2-(3-((1s,3s)-1-(4-methyl-4H-1,2,4-triazol-3-yl)-3-(methylsulfonyl)cyclobutyl)phenyl)-6-(((1-methylcyclobutyl)amino)methyl)-4-(trifluoromethyl)isoindolin-1-one]
–	–	–	0.077 µM	0.016 µM	4.8x	–	–	Cn1cnnc1[C@]1(c2cccc(N3Cc4c(cc(CNC5(C)CCC5)cc4C(F)(F)F)C3=O)c2)C[C@H](OC(F)(F)F)C1 [Compound 350, 2-(3-((1s,3s)-1-(4-methyl-4H-1,2,4-triazol-3-yl)-3-(trifluoromethoxy)cyclobutyl)phenyl)-6-(((1 methylcyclobutyl)amino)methyl)-4-(trifluoromethyl)isoindolin-1-one]
–	–	–	0.72 µM	–	–	0.1 µM	7.2x	CO[C@H]1C[C@](c2cccc(N3Cc4c(cc(CN5CCCCC5)cc4C(F)(F)F)C3=O)c2)(c2nncn2C)C1 [Compound 420, 2-(3-((1r,3r)-3-methoxy-1-(4-methyl-4H-1,2,4-triazol-3-yl)cyclobutyl)phenyl)-6-(piperidin-1-ylmethyl)-4-(trifluoromethyl)isoindolin-1-one]
–	–	–	1.5 µM	–	–	0.23 µM	6.5x	CO[C@H]1C[C@](c2cccc(N3Cc4c(cc(CN5CCC6(CC5)CC(O)C6)cc4C(F)(F)F)C3=O)c2)(c2nncn2C)C1 [Compound 424, 6-((2-hydroxy-7-azaspiro[3.5]nonan-7-yl)methyl)-2-(3-((1r,3r)-3-methoxy-1-(4-methyl-4H-1,2,4-triazol-3-yl)cyclobutyl)phenyl)-4-(trifluoromethyl)isoindolin-1-one]
–	–	–	5.7 µM	–	–	3.3 µM	1.7x	C[C@@H](NC1(C)CCC1)c1cc2c(c(C(F)(F)F)c1)CN(c1cccc([C@@H](c3nncn3C)C3COC3)c1)C2=O [Compound 443, 2-(3-((S)-(4-methyl-4H-1,2,4-triazol-3-yl)(oxetan-3-yl)methyl)phenyl)-6-((R)-1-((1-methylcyclobutyl)amino)ethyl)-4-(trifluoromethyl)isoindolin-1-one]
–	–	–	3.9 µM	–	–	0.61 µM	6.4x	Cn1cnnc1[C@H](c1cccc(N2Cc3c(cc(CNC4(C)CCC4)cc3C(F)F)C2=O)c1)C1CC(F)C1 (stereo partly drawn) [Compound 460, 4-(difluoromethyl)-2-(3-((S)-((1r,3S)-3-fluorocyclobutyl)(4-methyl-4H-1,2,4-triazol-3-yl)methyl)phenyl)-6-(((1-methylcyclobutyl)amino)methyl)isoindolin-1-one]
–	–	–	0.25 µM	–	–	0.029 µM	8.6x	CO[C@H]1C[C@](c2cccc(N3Cc4c(cc(CNC5(C)COC5)cc4C(F)(F)F)C3=O)c2)(c2nncn2C)C1 [Compound 479, 2-(3-((1r,3r)-3-methoxy-1-(4-methyl-4H-1,2,4-triazol-3-yl)cyclobutyl)phenyl)-6-(((3-methyloxetan-3-yl)amino)methyl)-4-(trifluoromethyl)isoindolin-1-one]
